Source: ChEMBL document CHEMBL1123967, “New potent antagonists of leukotrienes C4 and D4. 1. Synthesis and structure-activity relationships” (J Med Chem, 1988)

Tests used:
Cavia porcellus [1] = test: Inhibition of LTD4 (5 ng/site) induced vascular permeability in guinea pig skin at dose 30 mg/kg given perorally; type: functional; conditions: route oral
[2] = biological target: Cysteinyl leukotriene receptor (Homo sapiens) (UniProt Q9Y271+Q9NS75); test: In vivo inhibition of LTD4-induced bronchoconstriction in anesthetized guinea pig.; type: functional, organism-based; conditions: Cavia porcellus; target entry is the homologue from another species
Cavia porcellus [3] = test: Inhibition of LTD4 (5 ng/site) induced vascular permeability in guinea pig skin at dose 10 mg/kg given perorally; type: functional; conditions: route oral
[4] = biological target: T1, Cysteinyl leukotriene receptor (Homo sapiens, UniProt Q9Y271+Q9NS75); test: Inhibition of LTC4 induced smooth muscle contraction of guinea pig ileum; type: functional, tissue-based, Cavia porcellus; conditions: target entry is the homologue from another species
T1 sequence (Q9Y271 whole entry): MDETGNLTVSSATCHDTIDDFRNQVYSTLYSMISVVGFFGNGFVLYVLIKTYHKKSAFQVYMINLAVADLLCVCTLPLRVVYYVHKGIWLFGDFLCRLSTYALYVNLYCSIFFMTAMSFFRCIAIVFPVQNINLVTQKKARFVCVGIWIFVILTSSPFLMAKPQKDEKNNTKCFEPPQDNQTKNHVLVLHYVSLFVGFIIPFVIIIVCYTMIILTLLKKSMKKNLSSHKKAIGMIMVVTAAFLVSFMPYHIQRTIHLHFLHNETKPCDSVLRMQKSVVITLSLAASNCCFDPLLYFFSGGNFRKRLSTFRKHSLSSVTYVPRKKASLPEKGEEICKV
T1 sequence (Q9NS75 whole entry): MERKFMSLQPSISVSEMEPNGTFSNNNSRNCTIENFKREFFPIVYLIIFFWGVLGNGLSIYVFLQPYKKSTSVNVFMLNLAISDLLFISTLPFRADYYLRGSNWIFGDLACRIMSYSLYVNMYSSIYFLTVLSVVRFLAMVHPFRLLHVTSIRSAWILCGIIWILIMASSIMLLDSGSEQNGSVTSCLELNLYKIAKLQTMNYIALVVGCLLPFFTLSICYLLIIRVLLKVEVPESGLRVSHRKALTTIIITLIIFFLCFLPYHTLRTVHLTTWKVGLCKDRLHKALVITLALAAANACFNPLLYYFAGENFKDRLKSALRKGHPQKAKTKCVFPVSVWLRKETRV

Cavia porcellus [5] = test: Inhibition of LTD4-induced bronchoconstriction in guinea pig at dose of (0.5 ug/kg) given intravenously; type: functional; conditions: iv, read-out: ID50 (the source's name)
Cavia porcellus [6] = test: Inhibition of LTC4-induced bronchoconstriction in guinea pig at dose of (0.5 ug/kg) given intravenously; type: functional; conditions: iv, read-out: ID50 (the source's name)
Cavia porcellus [7] = test: Inhibition of LTE4-induced bronchoconstriction in guinea pig at dose of (1 ug/kg) given intravenously; type: functional; conditions: iv, read-out: ID50 (the source's name)
Cavia porcellus [8] = test: Inhibition of LTB4 induced bronchoconstriction in guinea pig at dose of (1 ug/kg) given intravenously; type: functional; conditions: iv, read-out: ID50 (the source's name)
Cavia porcellus [9] = test: Inhibition of LTD4 (5 ng/site) induced vascular permeability in guinea pig skin at dose 0.3 mg/kg given perorally; type: functional; conditions: route oral
Cavia porcellus [10] = test: Inhibition of LTD4 (5 ng/site) induced vascular permeability in guinea pig skin at dose 1 mg/kg given perorally; type: functional; conditions: route oral
Cavia porcellus [11] = test: Inhibition of LTD4-induced bronchoconstriction in guinea pig in guinea pig at dose of (0.5 ug/kg) given intravenously; type: functional; conditions: iv, read-out: ID50 (the source's name)
Cavia porcellus [12] = test: Inhibition of LTB4 induced bronchoconstriction in guinea pig at dose of 3 ug/kg given intravenously; type: functional; conditions: iv, read-out: ID50 (the source's name)
Cavia porcellus [13] = test: Inhibition of LTE4 induced bronchoconstriction in guinea pig at dose of 1 ug/kg given intravenously; type: functional; conditions: iv, read-out: ID50 (the source's name)
Cavia porcellus [14] = test: Inhibition of LTD4 induced bronchoconstriction in guinea pig at dose of (0.5 ug/kg) given intravenously; type: functional; conditions: iv, read-out: ID50 (the source's name)
Cavia porcellus [15] = test: Inhibition of LTC4 induced bronchoconstriction in guinea pig at dose of (0.5 ug/kg) given intravenously; type: functional; conditions: iv, read-out: ID50 (the source's name)

SMILES | inhibition in vivo at 30 mg/kg (Cavia porcellus [1]) [%] | ID50 [2] [µg/kg] | inhibition in vivo at 10 mg/kg (Cavia porcellus [3]) [%] | IC50 [4] [pM] | ED50 (Cavia porcellus [6]) [µg/kg] | ED50 (Cavia porcellus [7]) [µg/kg] | inhibition in vivo at 0.3 mg/kg (Cavia porcellus [9]) [%] | inhibition in vivo at 1 mg/kg (Cavia porcellus [10]) [%] | ED50 (Cavia porcellus [12]) [µg/kg] | other results
CCCCC/C=C/COc1ccc(C(=O)Nc2cccc3c2OC(c2nnn[nH]2)CO3)cc1 (stereo unspecified) | < 43.8 | 2 | 30.4 | 2000 |  |  |  |  |  | 
CCCc1c(OCC(O)COc2ccc3c(=O)cc(C(=O)[O-])oc3c2CCC)ccc(C(C)=O)c1O.[Na+] (stereo unspecified) [FPL-55712 SODIUM SALT] |  | 500 |  |  | 155 | 211 |  |  |  | ED50 (Cavia porcellus [5]): 440 µg/kg; ED50 (Cavia porcellus [8]): > 500 µg/kg
O=C(Nc1cccc2c(=O)cc(-c3nnn[nH]3)oc12)c1ccc(OCCCCc2ccccc2)cc1 |  | 0.8 |  |  | 0.8 | 0.7 | 74.7 | 75.2 | > 500 | ED50 (Cavia porcellus [11]): 1 µg/kg
C=CCCCCCCOc1ccc(C(=O)Nc2cccc3c(=O)cc(-c4nn[nH]n4)oc23)cc1 |  | 1.9 |  | 110 |  |  | < 46.7 | < 60.7 |  | 
O=C(Nc1cccc2c1OC(c1nnn[nH]1)CO2)c1ccc(OCCCCc2ccccc2)cc1 (stereo unspecified) | 63.2 | 1.2 | 61.8 | 370 |  |  |  |  | > 500 | ED50 (Cavia porcellus [13]): 2 µg/kg; ED50 (Cavia porcellus [14]): 4.4 µg/kg; ED50 (Cavia porcellus [15]): 1.1 µg/kg
CCCCC/C=C/COc1ccc(C(=O)Nc2cccc3c(=O)cc(-c4nn[nH]n4)oc23)cc1 |  | 0.72 |  | 60 |  |  |  | 25 |  | 
